Experimental data as given in patent publication US10183011B2, “Anti-depression compounds” (Board of Regents of the University of Texas System, priority 2009, dated 2019).

How the values were obtained:
[1] = tested on: cultured primary cortical neurons; assay: Mitochondrial membrane potential (TMRM) after A23187 in cultured primary cortical neurons; type: cell-based; details: rat E14 cortical neurons
Description: (§1) FIG. 23: Example 45 Compound Preserves Mitochondrial Membrane Potential in Cultured Primary Cortical Neurons. Cortical neurons cultures from rats on embryonic day 14 were loaded with tetramethylrhodamine methyl ester (TMRM) dye after 6 days of maturation. […] The remaining panels are from cells that were exposed to the calcium ionophore A23187 at time zero. With vehicle-alone, cortical neuron mitochondrial membrane potential was rapidly lost after exposure to the ionophore. […] Results shown are representative of 10 fields analyzed in each of 2 experimental runs for all conditions.
as §1, with “It was also examined whether” for “FIG. 23:”, “preserves mitochondrial membrane potential” for “Preserves Mitochondrial Membrane Potential”, “cultured primary cortical neurons (FIG. 23).” for “Cultured Primary Cortical Neurons.”

[2] = tested on: newborn cells in the dentate gyrus; assay: Chronic social defeat stress (CSDS): DG cellular proliferation (BrdU) and apoptosis (AC3); type: in vivo, mouse (Ghsr-null and wild-type)
Description: FIG. 40. Effects of P7C3 on DG cellular proliferation and apoptosis following CSDS. (a) Protocol schematic. (b-e) BrdU-immunoreactive and AC3-immunoreactive cell counts in the dorsal and ventral DG of CSDS-exposed and non-CSDS-exposed mice treated with P7C3 vs. vehicle. Group sizes indicated. (f-k) Representative photomicrograph images of double-immunolabeled (BrdU and AC3) ventral DG sections. (l-q) Magnified images of immunoreactive cells (AC3, leftward-facing arrow; BrdU, rightward-facing arrow). Scale bar in (k; 100 μm) pertains to (f-k), in (q; 25 μm) pertains to (l-q). *P<0.05, **P<0.01, ***P<0.001, as compared to respective non-CSDS-exposed, vehicle-treated control group.
It was next investigated whether protecting neural precursor cells from CSDS-associated apoptosis might help protect against the depressive-like phenotype. To test this idea, P7C3 was utilized, a neuroprotective aminopropyl carbazole that elevates hippocampal neurogenesis by blocking apoptosis without affecting the proliferation rate of hippocampal neural precursor cells in the dentate gyrus. A twice-daily schedule of intraperitoneal P7C3 injections (20 mg/kg/d in divided doses) was initiated two days prior to CSDS and continued throughout the 10 day procedure for both wild-type and Ghsr-null littermates. […]
CSDS was performed similar to methods used previously in the lab (J. C. Chuang et al., Ghrelin mediates stress-induced food-reward behavior in mice. J Clin Invest 121, 2684 (2011)). […] Ethovision 3.0 software (Noldus, Leesburg, Va.) measured the duration spent in the interaction zone or in the corners. […]
Immunohistochemistry and quantification were performed as described previously (J. C. Chuang et al., Ghrelin mediates stress-induced food-reward behavior in mice. J Clin Invest 121, 2684 (2011); J. E. Malberg et al., Chronic antidepressant treatment increases neurogenesis in adult rat hippocampus. J Neurosci 20, 9104 (2000); A. A. Pieper et al., Discovery of a proneurogenic, neuroprotective chemical. Cell 142, 39 (2010)). […]

Row | SMILES | dose giving full protection of mitochondrial membrane potential [1] [mM] | AC3+ cells in the ventral DG after CSDS ([2]; 20 mg/kg/d i.p. in divided doses) | BrdU+ cells in the DG after CSDS ([2]; 20 mg/kg/d i.p. in divided doses, wild type and Ghsr-null mice) | BrdU or AC3 immunoreactivity in the DG ([2]; non-stressed control animals)
1 | OC(CNc1ccccc1)Cn1c2ccc(Br)cc2c2cc(Br)ccc21 (stereo not shown) [Example 45 Compound] | 1 | – | – | –
2 | OC(CNc1ccccc1)Cn1c2ccc(Br)cc2c2cc(Br)ccc21 (stereo not shown) [Example P7C3] | – | blocked by P7C3 administration | preserved normal levels of neurogenesis throughout both dorsal and ventral regions of the DG | did not significantly augment BrdU or AC3 immunoreactivity
